Test results as given in patent US20160206543A1, “SYNERGISTIC COMPOSITIONS AND METHODS FOR MITIGATING SKIN IRRITATION AND ENHANCING SKIN BARRIER FUNCTION” (GOJO INDUSTRIES, INC., priority 2014, published 2016).

Columns and labels:
Assay type in all cases: cell-based, human
[1] = test system: IL-8; assay: IL-8 ELISA (Part 1, Quantikine kit), surfactant-induced irritation; settings: for IL-8 secreted: human dermal keratinocytes co-treated with surfactant mixture (sodium laureth sulfate + polyquaternium-10), Control B = 100%, Control A = 0%; for Reduction of IL-8 Secretion Compared to Control B: subtracting from 100% for Control B
From the text: Interleukin 8 (IL-8) is a chemokine and proinflammatory cytokine produced by macrophages and other cell types such as epithelial cells. It is secreted from keratinocytes in skin in response to inflammatory stimuli. IL-8 is secreted and is an important mediator of the immune reaction in the innate immune system response. IL-8 overexpressed is a biomarker of skin irritation.
For Control A, human dermal keratinocytes are left untreated. No irritation is expected, and therefore Control A provides a baseline. For Control B, IL-8 is induced in human dermal keratinocytes by applying a surfactant mixture that is a combination of sodium laureth sulfate and polyquaternium-10. For all other samples, the human dermal keratinocytes are co-treated with the surfactant mixture and a composition containing the ingredient of interest. Decreased Il-8 expression reflects the ingredient's anti-irritation activity.
In order to carry out the test method, an assay kit was employed that was obtained from R&D Systems: Human CXCL8/IL-8 Quantikine ELISA Kit.
The following steps were followed: 1. Bring all reagents and samples to room temperature before use. 2. Prepare all reagents, standard dilutions, and samples. 3. Remove excess microplate strips from the plate frame, return them to the foil pouch containing the desiccant pack, and reseal. 4. Add 100 μL of Assay Diluent to each well. 5. Add 50 μL of Standard, control, or sample to each well. Cover with a plate sealer, and incubate at room temperature for 2 hours. 6. Aspirate each well and wash, repeating the process 3 times for a total of 4 washes. 7. Add 100 μL of Conjugate to each well. Cover with a new plate sealer, and incubate at room temperature for 1 hour. 8. Aspirate and wash 4 times. 9. Add 200 μL Substrate Solution to each well. Incubate at room temperature for 30 minutes, making sure to protect the wells from the light. 10. Add 50 μL of Stop Solution to each well. The liquid was removed from the well and, using a colorimeter, absorbance was measured at 450 nanometers (nm) within 30 minutes. Wavelength correction was set to 540 nm or 570 nm.
The samples were tested for IL-8 secretion as described in the test method above. That is, for Control A, human dermal keratinocytes were left untreated. For Control B, IL-8 a surfactant mixture that was a combination of sodium laureth sulfate and polyquaternium-10. For all other samples, the human dermal keratinocytes were co-treated with the surfactant mixture and a composition containing the ingredient of interest. Decreased 11-8 expression reflects the ingredient's anti-irritation activity. The results are summarized in Table 2 and shown graphically in FIG. 1.
The amount of the reduction in IL-8 secretion for the test samples (subtracting from 100% for Control B) is summarized in Table 2 and shown graphically in FIG. 2. It can be seen that the combination of acetyl hexapeptide-46 and acetyl hexapeptide-38 produce an enhanced reduction in IL-8 secretion, particularly for the higher concentrations.

[2] = test system: DSC3; assay: Cell-cell junction, qRT-PCR for desmocollin (DSC3); settings: keratinocytes treated overnight; KGM = 100
From the text: (§1) Tight Junctions are the closely associated areas of two cells whose membranes join together forming a virtually impermeable barrier to fluid. A desmosome is a cell structure specialized for cell-to-cell adhesion. A type of junction complex, they are localized spot-like adhesions randomly arranged on the lateral sides of plasma membranes. Desmosomes are molecular complexes of cell adhesion proteins and linking proteins that attach the cell surface adhesion proteins to intracellular keratin cytoskeletal filaments.
(§2) The cell adhesion proteins of the desmosome, desmoglein (DSG) and desmocollin (DSC), are members of the cadherin family of cell adhesion molecules. They are biomarker of skin tight junctions. In particular, DSG1 is a biomarker for cell binding, the higher the expression, the better skin cell-cell junction and the better skin barrier function will be. DSC3 is a protein in humans that is encoded by the DSC3 gene, the higher the expression, the better skin cell-cell junction and the better skin barrier function will be.
(§3) In the present method, keratinocytes were treated with the sample compositions in a 6-well plate overnight. After washing with cold phosphate-buffered saline (PBS), total RNAs were prepared from each well. Real-Time Quantitative Reverse Transcription PCR (qRT-PCR) was performed to detect the target genes ([…]) expression level using a One-step TaqMan® RT-PCR kit (Life Technologies).
(§4) Samples containing various amounts of acetyl hexapeptide-38 and/or acetyl hexapeptide-46 were tested for cell-cell junction, as described above. Solution of Vitamin D3 and keratinocyte growth medium (KGM) were used for comparison. The results are summarized in Tables 3-4 below, and graphically represented in FIGS. 3-4. It can be seen that compositions containing acetyl hexapeptide-38 and/or acetyl hexapeptide-46 enhanced cell-cell junction when compared to Vitamin D3 and KGM.

[3] = test system: DSG1; assay: Cell-cell junction, qRT-PCR for desmoglein (DSG1); settings: keratinocytes treated overnight; KGM = 100
From the text: as §1, §2, §3, §4

[4] = test system: APQ3; assay: Skin water channel biomarker: APQ3 expression; settings: FIG. 10
From the text: FIG. 5 is a graphical representation of the effect of various compositions on the irritation response of cells treated with known irritants, as quantified by measuring IL-8 secretion, and on cell viability. FIG. 6 is a graphical representation of Involucrin Expression—Keratinocytes (KC) differentiation. FIG. 7 is a graphical representation of PPARδ expression—ceramides related biomarker. FIG. 8 is a graphical representation of ABCA12 expression—fatty acid related biomarker. FIG. 9 is a graphical representation of DSC1 expression—cell-cell junction biomarker. FIG. 10 is a graphical representation of APQ3 expression—skin water channel.
An in vitro model was employed, using monolayer human dermal keratinocytes culture (KGM). Two controls were tested: the medium and inflammatory cytokines interleukin (IL-1b).
Skin Barrier Biomarkers: ABCA12, Involucrin, PPARδ. Different concentrations of ingredients were used to treat the keratinocyte for 24 hours. Cells were collected and total RNA prepared from the treated cells. Real-time RT-PCT was used to detect different barrier function related biomarker's gene expression level. Comparative Benchmark: Vitamin D3 (cholecalciferol) in three different concentrations.

Compound	IL-8 secreted [1] [%]	Reduction of IL-8 Secretion Compared to Control B [1] [%]	DSC3 % [2] [%]	further results
acetyl hexapeptide-46 [Example 2G]	−6.90	106.90		
Acetyl hexapeptide-46 [Example 3E]			377	DSG1 % [3]: 162%
acetyl hexapeptide-38 [Example 1B]	71.70	28.30		
Acetyl hexapeptide-46 [Example 3D]			230	
acetyl hexapeptide-38 [Example 1C]	84.90	15.10		
acetyl hexapeptide-46 [Example 2B]	50.90	49.10		
acetyl hexapeptide-46 [Example 2D]	78.20	21.80		
acetyl hexapeptide-38 [Example 1D]	95.80	4.20		
Acetyl hexapeptide-38 [Example 3A]			160	
acetyl hexapeptide-38 [Example 1G]	57.20	42.80		
Acetyl hexapeptide-46 [Example 3F]			265	DSG1 % [3]: 199%
acetyl hexapeptide-38				effect on IL-8 secretion compared to Control B (in words) [1]: reduce the IL-8 secretion
acetyl hexapeptide-38 [Example 1A]	69.60	30.40		
acetyl hexapeptide-46				APQ3 expression in KC (in words) [4]: does not individually stimulate APQ3 expression; effect on IL-8 secretion compared to Control B (in words) [1]: reduce the IL-8 secretion
Acetyl hexapeptide-38 [Example 3B]			205	DSG1 % [3]: 144%
acetyl hexapeptide-46 [Example 2C]	65.60	34.40		
acetyl hexapeptide-46 [Example 2A]	27.10	72.90		
Acetyl hexapeptide-38 [Example 3C]			210	DSG1 % [3]: 178%
C=C1CC[C@H](O)C/C1=C/C=C1\CCC[C@]2(C)[C@@H]([C@H](C)CCCC(C)C)CC[C@@H]12 [VitD3, cholecalciferol, reference compound]			109	DSG1 % [3]: 65%
